# Literature values as cited in PMC7395068, “The evolution of strategies to minimise the risk of human drug-induced liver injury (DILI) in drug discovery and development” (Archives of Toxicology, 2020).
# Where a name gives a salt, the structure may show the parent alone. Read-outs that look alike come from different tables or passages of the source.
# Columns and labels:
# [1] = cited from earlier work
# human hepatocytes = conditions: cited from earlier work
# [2] = cited from earlier work; remark: listed apart in the source
# [3] = test system: THLE or HepG2 cells, isolated mitochondria, BSEP; conditions: cited from earlier work
# [4] = test system: primary human hepatocytes, NIH3T3 fibroblasts, BSEP, CYP3A4; conditions: cited from earlier work
# [5] = human hepatocyte imaging, ref Xu 2008
# [6] = assignment in Xu 2008, ref Xu 2008
# [7] = binary in vivo human DILI call, ref Chen 2016
# [8] = human DILI, LTKB DILIrank category, ref Chen 2016
Compound,"DILI +VE (5-8), DILI -VE (-4) ([1]; ref Chen 2016)",DILI severity category ([1]; ref Chen 2016),"Structural based (HCI) (human hepatocytes; In vitro Assay, ref Xu 2008)",In vivo DILI ([2]; ref Xu 2008),also measured
N[C@@H]1C[C@H]1c1ccccc1 (racemic) [tranylcypromine],,,,,"DILI +VE (5-8), DILI -VE (-4) ([1]; binary in vivo DILI call given beside the severity category, ref Chen 2016): +VE; DILI severity category ([1]; human DILI concern category (LTKB DILIrank), ref Chen 2016): vLess-DILI-Concern; Structural based (HCI), In vitro Assay (human hepatocytes; [5]): -VE; In vivo DILI [2, 6]: -VE"
CC(=O)OCC[N+](C)(C)C [acetylcholine chloride],-VE,vNo-DILI-Concern,-VE,-VE,
Oc1ncnc2[nH]ncc12 [allopurinol],+VE,vMost-DILI-Concern,+VE,+VE,"Partition Hybrid HRM Score ([3]; In vitro Assay, ref Aleo 2019): +VE; Ro2 Hybrid HRM Score ([3]; In vitro Assay, ref Aleo 2019): -VE; In vivo DILI ([2]; […]): +VE; In vivo DILI ([2]; ref Aleo 2019): +VE"
CN/C(=N/CCSCc1nc[nH]c1C)NC#N [cimetidine],+VE,vLess-DILI-Concern,-VE,-VE,In vivo DILI ([2]; […]): +VE
CN(C)CCCC1(c2ccc(F)cc2)OCc2cc(C#N)ccc21 (centres unmarked) [citalopram],,,,,"DILI +VE (5-8), DILI -VE (-4) ([1]; in vivo): +VE; DILI severity category ([1]; in vivo): vLess-DILI-Concern; Structural based (HCI) (human hepatocytes): -VE; In vivo DILI ([2]; in vivo): -VE"
Nc1nc(Cl)nc2c1ncn2[C@H]1C[C@H](O)[C@@H](CO)O1 [cladribine],-VE,Ambiguous DILI-concern,-VE,-VE,
COc1cc2c(c(OC)c1OC)-c1ccc(OC)c(=O)cc1[C@@H](NC(C)=O)CC2 [colchicine],,,,,Cellular toxicity (3T3 cells) [4]: +VE; Combined Assay [4]: -VE; GSH adduct HML [4]: -VE; Hepatocyte cellular toxicity [4]: -VE; MitoTox 3T3 [4]: -VE; TDI CYP3A4 [4]: -VE; hBSEP inhibition [4]: -VE; Structural based (HCI) (human hepatocytes): -VE; Partition Hybrid HRM Score [3]: -VE
CN1CCC(=C2c3ccccc3C=Cc3ccccc32)CC1 [cyproheptadine],+VE,vLess-DILI-Concern,+VE,+VE,
CC(=O)N(O)CCCCCNC(=O)CCC(=O)N(O)CCCCCNC(=O)CCC(=O)N(O)CCCCCN [deferoxamine],+VE,vLess-DILI-Concern,+VE,+VE,"Partition Hybrid HRM Score ([3]; In vitro Assay, ref Aleo 2019): +VE; Ro2 Hybrid HRM Score ([3]; In vitro Assay, ref Aleo 2019): +VE; In vivo DILI ([2]; ref Aleo 2019): +VE"
CN(C)[C@@H]1C(O)=C(C(N)=O)C(=O)[C@@]2(O)C(O)=C3C(=O)c4c(O)ccc(Cl)c4[C@@H](O)[C@H]3C[C@@H]12 [demeclocycline],,,-VE,+VE,"DILI +VE (5-8), DILI -VE (-4) [1, 7]: -VE; DILI severity category [1, 8]: Ambiguous DILI-concern"
C=C1CC[C@H](O)C/C1=C/C=C1\CCC[C@]2(C)[C@@H]([C@H](C)/C=C/[C@H](C)C(C)C)CC[C@@H]12 [ergocalciferol],-VE,vNo-DILI-Concern,-VE,-VE,"Partition Hybrid HRM Score ([3]; In vitro Assay, ref Aleo 2019): -VE; Ro2 Hybrid HRM Score ([3]; In vitro Assay, ref Aleo 2019): -VE; In vivo DILI ([2]; ref Aleo 2019): -VE"
COc1cc([C@@H]2c3cc4c(cc3[C@@H](O[C@@H]3O[C@@H]5CO[C@@H](C)O[C@H]5[C@H](O)[C@H]3O)[C@H]3COC(=O)[C@H]23)OCO4)cc(OC)c1O [etoposide],+VE,vLess-DILI-Concern,-VE,+VE,In vivo DILI ([2]; […]): +VE; In vivo DILI ([2]; ref O'Brien 2006): +VE; In vivo DILI ([2]; ref Persson 2013): +VE; In vivo DILI ([2]; ref Tolosa 2012): +VE
CC(=O)OCC(=O)[C@@]1(O)CC[C@H]2[C@@H]3CCC4=CC(=O)CC[C@]4(C)[C@@]3(F)[C@@H](O)C[C@@]21C [fludrocortisone acetate],,,-VE,-VE,"Partition Hybrid HRM Score ([3]; In vitro Assay, ref Aleo 2019): -VE; Ro2 Hybrid HRM Score ([3]; In vitro Assay, ref Aleo 2019): -VE; In vivo DILI ([2]; ref Aleo 2019): -VE"
NCC1(CC(=O)O)CCCCC1 [gabapentin],+VE,vLess-DILI-Concern,-VE,-VE,In vivo DILI ([2]; ref Vorrink 2018): -VE
Cc1ccc(C)c(OCCCC(C)(C)C(=O)O)c1 [gemfibrozil],+VE,vMost-DILI-Concern,+VE,+VE,
NS(=O)(=O)c1cc2c(cc1Cl)NCNS2(=O)=O [hydrochlorothiazide],,,,,"DILI +VE (5-8), DILI -VE (-4) ([1]; in vivo): +VE; DILI severity category ([1]; in vivo): vLess-DILI-Concern; Structural based (HCI) (human hepatocytes): +VE; In vivo DILI ([2]; in vivo): +VE"
CC(=O)[C@]1(O)Cc2c(O)c3c(c(O)c2[C@@H](O[C@H]2C[C@H](N)[C@H](O)[C@H](C)O2)C1)C(=O)c1ccccc1C3=O [idarubicin],,,,,"DILI +VE (5-8), DILI -VE (-4) [1, 7]: -VE; DILI severity category [1, 8]: Ambiguous DILI-concern; Structural based (HCI), In vitro Assay (human hepatocytes; [5]): -VE; In vivo DILI [2, 6]: -VE"

Compound,"DILI +VE (5-8), DILI -VE (-4) ([1]; ref Chen 2016)",DILI severity category ([1]; ref Chen 2016),"Structural based (HCI) (human hepatocytes; In vitro Assay, ref Xu 2008)",In vivo DILI ([2]; ref Xu 2008),also measured
CC(COc1ccccc1)NC(C)C(O)c1ccc(O)cc1 (centres unmarked) [isoxsuprine],,,,,"DILI +VE (5-8), DILI -VE (-4) ([1]; in vivo): -VE; DILI severity category ([1]; in vivo): vNo-DILI-Concern; Structural based (HCI), In vitro Assay (human hepatocytes): -VE; In vivo DILI ([2]; in vivo): -VE"
CC(C)NCC(O)c1cc(O)cc(O)c1 (centres unmarked) [metaproterenol sulfate],,,-VE,,"Partition Hybrid HRM Score ([3]; In vitro Assay, ref Aleo 2019): -VE; Ro2 Hybrid HRM Score ([3]; In vitro Assay, ref Aleo 2019): -VE"
CC[C@@H](CO)NC(=O)[C@@H]1C=C2c3cccc4c3c(cn4C)C[C@H]2N(C)C1 [methysergide maleate],,,-VE,-VE,Partition Hybrid HRM Score [3]: -VE; Ro2 Hybrid HRM Score [3]: -VE; In vivo DILI ([2]; ref Aleo 2019): -VE
Cc1ncc([N+](=O)[O-])n1CCO [metronidazole],,,+VE,,"Partition Hybrid HRM Score ([3]; In vitro Assay, ref Aleo 2019): -VE; Ro2 Hybrid HRM Score ([3]; In vitro Assay, ref Aleo 2019): -VE"
CN[C@@H](C)[C@@H](O)c1ccccc1 [pseudoephedrine],,,,,"DILI +VE (5-8), DILI -VE (-4) ([1]; in vivo): -VE; DILI severity category ([1]; in vivo): vNo-DILI-Concern; Structural based (HCI), In vitro Assay (human hepatocytes): -VE; In vivo DILI ([2]; in vivo): -VE"
COc1ccc(C[C@H](N)C(=O)N[C@H]2[C@@H](O)[C@H](n3cnc4c(N(C)C)ncnc43)O[C@@H]2CO)cc1 [puromycin],,,,,"Structural based (HCI), In vitro Assay (human hepatocytes; [5]): +VE; In vivo DILI [2, 6]: +VE"
CC1=C(/C=C/C(C)=C/C=C/C(C)=C/C(=O)O)C(C)(C)CCC1 [retinoic acid],,,+VE,+VE,In vivo DILI ([2]; […]): +VE
NC(=O)c1ncn([C@@H]2O[C@H](CO)[C@@H](O)[C@H]2O)n1 [ribavirin],-VE,Ambiguous DILI-concern,-VE,-VE,"Partition Hybrid HRM Score ([3]; In vitro Assay, ref Aleo 2019): -VE; Ro2 Hybrid HRM Score ([3]; In vitro Assay, ref Aleo 2019): -VE"
CN[C@H]1CC[C@@H](c2ccc(Cl)c(Cl)c2)c2ccccc21 [sertraline],+VE,vLess-DILI-Concern,-VE,-VE,In vivo DILI ([2]; […]): -VE
CC(=O)S[C@@H]1CC2=CC(=O)CC[C@]2(C)[C@H]2CC[C@@]3(C)[C@@H](CC[C@@]34CCC(=O)O4)[C@H]12 [spironolactone],+VE,vLess-DILI-Concern,+VE,+VE,
CC[C@H]1OC(=O)[C@H](C)C(=O)[C@H](C)[C@@H](O[C@@H]2O[C@H](C)C[C@H](N(C)C)[C@H]2O)[C@](C)(OC)C[C@@H](C)C(=O)[C@H](C)[C@H]2N(CCCCn3cnc(-c4cccnc4)c3)C(=O)O[C@]12C [telithromycin],+VE,vMost-DILI-Concern,+VE,+VE,"Partition Hybrid HRM Score ([3]; In vitro Assay, ref Aleo 2019): +VE; Ro2 Hybrid HRM Score ([3]; In vitro Assay, ref Aleo 2019): +VE; In vivo DILI ([2]; ref Aleo 2019): +VE"
CCCCNc1ccc(C(=O)OCCN(C)C)cc1 [tetracaine],,,,,"Structural based (HCI), In vitro Assay (human hepatocytes; [5]): -VE; In vivo DILI [2, 6]: -VE"
Nc1nc2nc[nH]c2c(=S)[nH]1 [thioguanine],,,-VE,,"Partition Hybrid HRM Score ([3]; In vitro Assay, ref Aleo 2019): -VE; Ro2 Hybrid HRM Score ([3]; In vitro Assay, ref Aleo 2019): -VE"
CC(C)(C)NC[C@H](O)COc1nsnc1N1CCOCC1 [timolol maleate],,,,,"Structural based (HCI), In vitro Assay (human hepatocytes; [5]): -VE; In vivo DILI [2, 6]: +VE"
CN1C(=O)OC(C)(C)C1=O [trimethadione],-VE,Ambiguous DILI-concern,-VE,+VE,
C[C@H](CCC(=O)O)[C@H]1CC[C@H]2[C@@H]3[C@@H](O)C[C@@H]4C[C@H](O)CC[C@]4(C)[C@H]3CC[C@]12C [ursodeoxycholic acid],-VE,Ambiguous DILI-concern,-VE,-VE,
bacitracin,-VE,vNo-DILI-Concern,-VE,-VE,
